Data on 29 compounds can be found in US12415794B2 (Edgewise Therapeutics, Inc., priority 2018, dated 2025).

The target of this test is T1, cardiac myofibrils (myosin ATPase).
T1 construct: frozen myofibril pellets obtained from cardiac tissue; from tissue
As to the kind of experiment: Cardiac Myofibril ATPase Assay (counter screen). Particulars: myofibrils 1.0 mg/mL, KCl omitted. The test is classed as biochemical. The procedure: Overview: Myosin ATPase activity is assessed by using a coupled reaction system, in which ADP generated by the myosin ATPase function is coupled to the disappearance of NADH through the pyruvate kinase/lactate dehydrogenase (PK-LDH) system. ATPase activity produces ADP, which is used as a substrate for PK to produce pyruvate and regenerate ATP. The pyruvate is then used as a substrate by LDH to oxidize NADH to NAD+. The rate of the reaction is monitored through the time-dependent disappearance of NADH using absorbance at 340 nm. Inhibition of ATPase activity by the assayed compounds is indicated by a reduced rate of NADH loss, relative to vehicle-treated controls, over the experimental time window. To assess the selectivity of the assayed compounds for skeletal myofibrils, the compounds are counter-screened in cardiac myofibrils.
Example 13: Cardiac Myofibril ATPase Assay
Following example 11, the counter screen was done using frozen myofibril pellets obtained from cardiac tissue. The assay was done in the same manner as above, with the following notable exceptions: the final well concentration of myofibrils was 1.0 mg/mL and KCl was omitted from the recipe.
Compounds of Table 1 to 3 were tested, and results of the assays appear in Tables 5a-5c herein. A=IC50 is less than or equal to 10 μM; B=IC50 is greater than 10 μM and less than 100 μM; C=IC50 is greater than 100 μM; and […].
In general terms: A counterscreen serves to expose hits that act by an unwanted route or on another target.

T1 sequence (P12883 whole entry): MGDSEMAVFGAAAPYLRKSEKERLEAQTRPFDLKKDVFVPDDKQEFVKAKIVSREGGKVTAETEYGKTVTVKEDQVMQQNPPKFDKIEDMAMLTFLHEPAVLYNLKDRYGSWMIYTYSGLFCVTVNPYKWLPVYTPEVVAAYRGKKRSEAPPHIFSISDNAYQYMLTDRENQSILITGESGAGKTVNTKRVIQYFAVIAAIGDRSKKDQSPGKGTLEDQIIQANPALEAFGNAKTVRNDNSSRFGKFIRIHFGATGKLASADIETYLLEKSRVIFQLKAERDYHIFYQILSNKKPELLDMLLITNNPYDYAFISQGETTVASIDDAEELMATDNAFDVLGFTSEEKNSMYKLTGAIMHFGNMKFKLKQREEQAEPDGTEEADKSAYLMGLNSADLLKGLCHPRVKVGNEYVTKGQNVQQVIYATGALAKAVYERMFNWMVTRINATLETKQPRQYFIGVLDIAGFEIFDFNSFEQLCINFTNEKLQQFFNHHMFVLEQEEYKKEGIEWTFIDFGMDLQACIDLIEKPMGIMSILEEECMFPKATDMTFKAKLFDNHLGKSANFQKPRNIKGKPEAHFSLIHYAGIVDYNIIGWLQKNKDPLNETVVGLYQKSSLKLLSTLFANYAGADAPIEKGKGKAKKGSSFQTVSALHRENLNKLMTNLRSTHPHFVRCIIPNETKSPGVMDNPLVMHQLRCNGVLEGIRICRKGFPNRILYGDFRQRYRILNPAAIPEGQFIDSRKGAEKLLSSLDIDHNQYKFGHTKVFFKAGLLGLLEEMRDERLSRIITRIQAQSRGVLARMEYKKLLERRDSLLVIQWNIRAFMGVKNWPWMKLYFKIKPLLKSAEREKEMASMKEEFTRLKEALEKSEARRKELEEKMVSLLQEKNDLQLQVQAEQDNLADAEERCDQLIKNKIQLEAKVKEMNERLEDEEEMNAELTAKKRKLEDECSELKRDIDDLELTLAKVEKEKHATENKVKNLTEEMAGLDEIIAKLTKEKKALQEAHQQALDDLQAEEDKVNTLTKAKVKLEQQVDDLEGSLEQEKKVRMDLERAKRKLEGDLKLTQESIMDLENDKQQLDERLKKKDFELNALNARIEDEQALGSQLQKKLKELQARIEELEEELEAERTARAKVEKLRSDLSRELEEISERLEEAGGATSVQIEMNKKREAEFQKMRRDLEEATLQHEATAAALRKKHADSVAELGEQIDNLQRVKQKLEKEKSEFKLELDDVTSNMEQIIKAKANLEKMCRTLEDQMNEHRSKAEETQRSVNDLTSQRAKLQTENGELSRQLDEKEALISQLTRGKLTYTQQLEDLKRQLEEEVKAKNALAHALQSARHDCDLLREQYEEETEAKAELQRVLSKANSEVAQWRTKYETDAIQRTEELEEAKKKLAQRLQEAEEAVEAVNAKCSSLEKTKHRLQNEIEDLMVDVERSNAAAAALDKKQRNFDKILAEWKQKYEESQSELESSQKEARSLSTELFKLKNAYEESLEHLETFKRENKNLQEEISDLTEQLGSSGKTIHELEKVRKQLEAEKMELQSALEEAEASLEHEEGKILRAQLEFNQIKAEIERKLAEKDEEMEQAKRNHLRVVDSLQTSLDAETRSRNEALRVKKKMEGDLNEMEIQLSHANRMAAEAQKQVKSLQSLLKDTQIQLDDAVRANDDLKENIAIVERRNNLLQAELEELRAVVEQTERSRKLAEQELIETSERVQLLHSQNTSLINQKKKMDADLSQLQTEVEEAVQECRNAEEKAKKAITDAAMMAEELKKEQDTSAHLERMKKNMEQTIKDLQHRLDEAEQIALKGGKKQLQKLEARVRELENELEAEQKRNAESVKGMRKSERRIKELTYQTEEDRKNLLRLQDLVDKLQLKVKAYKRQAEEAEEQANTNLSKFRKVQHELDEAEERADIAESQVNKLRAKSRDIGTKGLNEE
T1 sequence (P08590 whole entry partner): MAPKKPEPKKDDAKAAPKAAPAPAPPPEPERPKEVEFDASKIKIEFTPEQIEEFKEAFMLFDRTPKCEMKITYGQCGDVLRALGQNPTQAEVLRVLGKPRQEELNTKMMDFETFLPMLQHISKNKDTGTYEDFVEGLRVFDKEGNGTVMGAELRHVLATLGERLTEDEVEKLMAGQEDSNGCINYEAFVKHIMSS
T1 sequence (P10916 whole entry partner): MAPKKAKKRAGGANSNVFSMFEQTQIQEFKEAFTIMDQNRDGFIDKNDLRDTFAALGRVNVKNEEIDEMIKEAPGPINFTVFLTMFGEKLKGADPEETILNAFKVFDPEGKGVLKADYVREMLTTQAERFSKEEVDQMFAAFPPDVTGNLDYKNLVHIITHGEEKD

As to `COc1ccc(-c2ccc(=O)n(CC(=O)N3CCCC3)n2)cc1` [IIIc-10, 6-(4-methoxyphenyl)-2-(2-oxo-2-(pyrrolidin-1-yl)ethyl)pyridazin-3(2H)-one], for the setting “Table 5C”, the IC50 was over 100 µM.

In turn, `CC(C)NC(=O)Cn1nc(-c2ccc(Cl)cc2)ccc1=O` [IIIc-15, 2-(3-(4-chlorophenyl)-6-oxopyridazin-1(6H)-yl)-N-isopropylacetamide] gave an IC50 (Table 5C) of over 100 µM.

Take `O=C(Cn1nc(-c2ccc(Cl)cc2)ccc1=O)NC1CCCCC1` [IIIc-39, 2-(3-(4-chlorophenyl)-6-oxopyridazin-1(6H)-yl)-N-cyclohexylacetamide]: where the note is “Table 5C”, the IC50 was over 100 µM.

For `O=C(Cn1nc(-c2ccc(Cl)cc2)ccc1=O)NC1CC1` [IIIc-36, 2-(3-(4-chlorophenyl)-6-oxopyridazin-1(6H)-yl)-N-cyclopropylacetamide], the IC50 (Table 5C) was over 100 µM.

For the compound `O=C(Cn1nc(-c2ccc(F)cc2)ccc1=O)Nc1ccccc1F` [IIIc-45, N-(2-fluorophenyl)-2-(3-(4-fluorophenyl)-6-oxopyridazin-1(6H)-yl)acetamide], the IC50 (Table 5C) was over 100 µM.

With `O=C(Cn1nc(-c2ccc(OC(F)(F)F)nc2)ccc1=O)NCc1ccccc1Cl` [Compound I-3, N-(2-chlorobenzyl)-2-(6-oxo-3-(6-(trifluoromethoxy)pyridin-3-yl)pyridazin-1(6H)-yl)acetamide], the IC50 (Table 5A) is over 100 µM.

In the case of `COc1ccc(NC(=O)Cn2nc(-c3ccc(Cl)cc3)ccc2=O)c(OC)c1` [IIIc-25, 2-(3-(4-chlorophenyl)-6-oxopyridazin-1(6H)-yl)-N-(2,4-dimethoxyphenyl)acetamide], the IC50 (Table 5C) was over 100 µM.

Under “Table 5C”, `COc1ccc(Cl)cc1NC(=O)Cn1nc(-c2ccc(Cl)cc2)ccc1=O` [IIIc-26, N-(5-chloro-2-methoxyphenyl)-2-(3-(4-chlorophenyl)-6-oxopyridazin-1(6H)-yl)acetamide] returned an IC50 of over 100 µM.

For the compound `CCNC(=O)Cn1nc(-c2cnc(OC(F)F)cc2F)ccc1=O` [Compound I-80, 2-(3-(6-(difluoromethoxy)-4-fluoropyridin-3-yl)-6-oxopyridazin-1(6H)-yl)-N-ethylacetamide], the IC50 (Table 5A) was over 100 µM.

With `O=C(Cn1nc(-c2ccc(Cl)cc2)ccc1=O)NCc1cccc(Cl)c1` [IIIc-34, N-(3-chlorobenzyl)-2-(3-(4-chlorophenyl)-6-oxopyridazin-1(6H)-yl)acetamide], the IC50 (Table 5C) is over 100 µM.

As for `O=C(Cn1nc(-c2ccc(F)cc2)ccc1=O)N1CCCC1` [IIIc-46, 6-(4-fluorophenyl)-2-(2-oxo-2-(pyrrolidin-1-yl)ethyl)pyridazin-3(2H)-one], for the setting “Table 5C”, the IC50 was over 100 µM.

In the case of `O=C(Cn1nc(-c2ccc(Cl)cc2)ccc1=O)NCc1ccccc1Cl` [IIIc-14, N-(2-chlorobenzyl)-2-(3-(4-chlorophenyl)-6-oxopyridazin-1(6H)-yl)acetamide], for the setting “Table 5C”, the concentration for half-maximal inhibition (IC50) is over 100 µM.

Compound `CCOc1ccc(-c2ccc(=O)n(CC(=O)N3CCCc4ccccc43)n2)cc1` [IIIc-8, 2-(2-(3,4-dihydroquinolin-1(2H)-yl)-2-oxoethyl)-6-(4-ethoxyphenyl)pyridazin-3(2H)-one] came in with an IC50 (Table 5C) of over 100 µM.

Turning to `O=C(Cn1nc(-c2ccc(Cl)cc2)ccc1=O)Nc1ccc2cc[nH]c2c1` [IIIc-21, 2-(3-(4-chlorophenyl)-6-oxopyridazin-1(6H)-yl)-N-(1H-indol-6-yl)acetamide], where the note is “Table 5C”, the IC50 is over 100 µM.

Compound `O=C(Cn1nc(-c2ccc(F)cc2)ccc1=O)NCc1cccc(F)c1` [IIIc-43, N-(3-fluorobenzyl)-2-(3-(4-fluorophenyl)-6-oxopyridazin-1(6H)-yl)acetamide] returned an IC50 (Table 5C) of over 100 µM.

For `COc1ccc(OC)c(NC(=O)Cn2nc(-c3ccc(Cl)cc3)ccc2=O)c1` [IIIc-29, 2-(3-(4-chlorophenyl)-6-oxopyridazin-1(6H)-yl)-N-(2,5-dimethoxyphenyl)acetamide], under “Table 5C”, the IC50 was over 100 µM.

`CCNC(=O)Cn1nc(-c2ccc(N3C[C@@H]4COCC3CO4)nc2)ccc1=O` [Compound I-81, 2-(3-(6-((5R)-3,6-dioxa-8-azabicyclo[3.2.2]nonan-8-yl)pyridin-3-yl)-6-oxopyridazin-1(6H)-yl)-N-ethylacetamide]: for the setting “Table 5A”, the IC50 is over 100 µM.

With `O=C(Cn1nc(-c2ccc(Br)cc2)ccc1=O)NC1CCCC1` [IIIc-41, 2-(3-(4-bromophenyl)-6-oxopyridazin-1(6H)-yl)-N-cyclopentylacetamide], under “Table 5C”, the IC50 is over 100 µM.

In the case of `O=C(Cn1nc(-c2ccccc2)ccc1=O)N(C1=CCCCC1)C1CC1` [IIIc-59, N-(cyclohex-1-en-1-yl)-N-cyclopropyl-2-(6-oxo-3-phenylpyridazin-1(6H)-yl)acetamide], the IC50 (Table 5C) is over 100 µM.

Consider `O=C(Cn1nc(-c2ccccc2)ccc1=O)NCCN1CCc2ccccc21` [IIIc-60, N-(2-(indolin-1-yl)ethyl)-2-(6-oxo-3-phenylpyridazin-1(6H)-yl)acetamide], for which, where the note is “Table 5C”, the IC50 was over 100 µM.

Take `CCNC(=O)Cn1nc(-c2ccc(OCC3(F)COC3)cc2)ccc1=O` [IIIa-27, N-ethyl-2-(3-(4-((3-fluorooxetan-3-yl)methoxy)phenyl)-6-oxopyridazin-yl)acetamide]: the IC50 (Table 5C) was over 100 µM.

On to `O=C(Cn1nc(-c2ccc(Br)cc2)ccc1=O)NC1CCCCC1` [IIIc-42, 2-(3-(4-bromophenyl)-6-oxopyridazin-1(6H)-yl)-N-cyclohexylacetamide], for which, for the setting “Table 5C”, the IC50 was over 100 µM.

With `O=C(Cn1nc(-c2ccc(Cl)cc2)ccc1=O)NC1CCCC1` [IIIc-37, 2-(3-(4-chlorophenyl)-6-oxopyridazin-1(6H)-yl)-N-cyclopentylacetamide], the IC50 (Table 5C) was over 100 µM.

As for `CC[C@H](C)NC(=O)Cn1nc(-c2ccc(OC(F)F)nc2)ccc1=O` [Compound I-9, (S)-N-(sec-butyl)-2-(3-(6-(difluoromethoxy)pyridin-3-yl)-6-oxopyridazin-1(6H)-yl)acetamide], the IC50 (Table 5A) is over 100 µM.

Regarding `COc1ccc(-c2ccc(=O)n(CC(=O)NCC(C)C)n2)c(F)c1` [IIIb-42, 2-(3-(2-fluoro-4-methoxyphenyl)-6-oxopyridazin-1(6H)-yl)-N-isobutylacetamide], where the note is “Table 5C”, the IC50 is over 100 µM.

With `COc1ccc(-c2ccc(=O)n(CC(=O)N3CCC(C(N)=O)CC3)n2)cc1` [IIIc-11, 1-(2-(3-(4-methoxyphenyl)-6-oxopyridazin-1(6H)-yl)acetyl)piperidine-4-carboxamide], the IC50 (Table 5C) was over 100 µM.

In turn, `Cc1cccnc1NC(=O)Cn1nc(-c2ccc(Cl)cc2)ccc1=O` [IIIc-24, 2-(3-(4-chlorophenyl)-6-oxopyridazin-1(6H)-yl)-N-(3-methylpyridin-2-yl)acetamide] came in with an IC50 (Table 5C) of over 100 µM.

Where the note is “Table 5C”, `CC(C)(CNC(=O)Cn1nc(-c2ccccc2)ccc1=O)c1ccccc1F` [IIIc-61, N-(2-(2-fluorophenyl)-2-methylpropyl)-2-(6-oxo-3-phenylpyridazin-1(6H)-yl)acetamide] registered an IC50 of over 100 µM.

As to `COc1ccc(-c2ccc(=O)n(CC(=O)N3CCCC3)n2)cc1OC` [IIIc-9, 6-(3,4-dimethoxyphenyl)-2-(2-oxo-2-(pyrrolidin-1-yl)ethyl)pyridazin-3(2H)-one], the IC50 (Table 5C) was over 100 µM.

Broadly, the IC50 is the point on the concentration scale where inhibition reaches its midpoint. Lower therefore signals inhibition by little substance.
